We go through three molecules from patent publication US7166688B1, “Chelation compositions” (LidoChem, Inc., priority 2000, dated 2007).

Data set [1] in a line: Copper chelation, clear solution / precipitate test. It is filed as physicochemical. To be noted: five percent chelated copper solution: 19 grams basic copper sulfate in 100 ml water, HCl, 71 grams compound; pH of 5. The protocol: A five percent chelated copper solution was prepared by blending 19 grams of basic copper sulfate in 100 ml of water. Concentrated HCl was added to solubilize the copper. Once in solution, 71 grams of the compound produced in Example 10 was added. […] This chelated copper solution is suitable for blending with phosphorus fertilizers.
In 250 ml of water 1 gram of copper sulfate was added and mechanically stirred. To this solution, 10 ml of the diethanolsuccinamide-amino ethanol solution produced in Example 17 was added. The pH of the blend was adjusted to 8.4 and 1 gram of potassium phosphate was added the mixture.
In another flask, 1 gram of copper sulfate was added to 250 ml of water and mechanically blended. Then, 1 gram of potassium phosphate was added to the blend. The pH of the solution was adjusted with potassium hydroxide. Immediately a powder solid was formed and precipitated. The hydroxide and phosphate salts of copper were formed.
In 400 ml of water, 1 gram of copper sulfate was added and 10 ml of the product from example 28 were added. With mechanical stirring, 20 grams of monopotassium phosphate were added to the mix. The pH of the solution was then adjusted to 2 with HCl. The pH of the solution was then gradually raised with the addition of Monoethanolamine to a pH of 9.
Two grams of basic copper sulfate were added to 200 ml of water. […]

Data set [2] can be described thus: Zinc chelation, clear solution / precipitate test. The format is physicochemical. The protocol: In 25 ml of water 1 gram of zinc sulfate was added. Once the zinc sulfate was in solution, 30 ml of the N,N-diethanolsuccinamide amino ethanol solution produced in Example 17 was added and the pH of the blend was adjusted to 9.5. Then 1 gram of potassium phosphate was added tho the mixture.
In a separate flask 25 ml of water, 1 gram of zinc sulfate and 1 gram of potassium phosphate were blended together. Immediately a white precipitate formed.
In 400 ml of water, 20 ml of a 17% zinc nitrate solution were added and 60 ml of the product from example 28 were added. With mechanical stirring, 40 grams of monopotassium phosphate were added to the mix. The pH of the solution was then adjusted to 2 with HCl. The pH of the solution was then gradually raised with the addition of Monoethanolamine to a pH of 9.
A nine percent chelated zinc solution was prepared by blending 50 ml of water with 22.4 grams zinc oxide. Concentrated HCl was added until the solution was clear. Once in solution, 125 grams of the compound produced in Example 10 was added. […] This chelated zinc solution is suitable for blending with phosphorus fertilizers 2-ethanolaminesuccinic-N-ethanolsuccinicamide (tri potassium salt) has the following formula: […]
Ten ml of 17% zinc solution were added to a liter of water. Later 20 grams of potassium phosphate were added and dissolved. Zinc phosphate formed a precipitate. Phosphorous acid was then added to lower the pH and clear the solution. Once clear 30 ml of the solution prepared in example 35 was added. This acidic solution, which was acidic, then remained undisturbed for a day, after which the pH was adjusted to 10 with the addition of MEA.

Data set [3] can be described thus: Iron chelation, clear solution / precipitate test. The format is physicochemical. How it is done:
A five percent chelated iron solution was prepared by blending 18 ml of water with 100 grams of a (10% Fe) ferric nitrate solution. Once in solution, 82 grams of the compound produced in Example 10 was added.
In 25 ml of water, 20 ml of a 1.8M ferric nitrate was added. Once in solution, 30 ml of the diethanolsuccinamide amino ethanol solution produced in Example 17 was added and the pH of the blend was adjusted to 9.2. Then 1 gram of potassium phosphate was added to the mixture.
Five drops of 1.8 M ferric nitrate were added to one liter of water and mechanically blended. Then 10 grams of potassium phosphate were added to the solution and allowed to form insoluble potassium salts.
In 400 ml of water, 20 ml of a 10% ferric nitrate solution were added, and 20 ml of the product from example 25 were added. With mechanical stirring, 40 grams of monopotassium phosphate was added the mix. The pH of the solution was then adjusted to 2 with HCl. The pH of the solution was then gradually raised with the addition of base to a pH of 10.
In 400 ml of water, 10 ml of 1.8 M ferric nitrate solution were added and 20 ml of the product from example 28 were added. With mechanical stirring, 20 grams of monopotassium phosphate was added to the mix. The pH of the solution was then adjusted to 2 with HCL. The pH of the solution was then gradually raised with the addition of Monoethanolamine to a pH of 10.
To a beaker containing one liter of water, 20 grams of potassium phosphate were added to form a clear solution.
Thirty grams of 1.8 M ferric nitrate were added to 100 ml of water. The pH of the solution was lowered to 4 with phosphorous acid, and then 5 grams of Potassium phosphate were then added to the blend. Later 30 ml of the solution produced in example 29 was added.
One hundred ml of the solution prepared in Example 41 was added to 500 ml of water and blended. 10 ml of 1.8-M ferric nitrate was then added to the mixture. […] The potassium salt of maleic acid was tested as a chelating agent.
In a separate flask 20 grams of maleic anhydride were blended in 500 ml of water. Potassium hydroxide was then added to the blend to raise the pH to 10. Later ten ml of 1.8M ferric nitrate was added to the mix and 10 grams of potassium phosphate was also blended in. […] The contents of the flask were then blended again while MEA was added to the mix.

Data set [4] can be described thus: Manganese chelation, clear solution / precipitate test. The format is physicochemical. Particulars: five percent chelated manganese solution: 18 ml water, 58 grams (17% Mn) manganese nitrate solution, 82 grams compound; pH of 5. How it is done: In 25 ml of water 10 ml of a manganese nitrate solution was added. Once the manganese nitrate was in solution, 30 ml of the N,N-diethanolsuccinamide amino ethanol solution produced in Example 17 was added to the mixture and the pH of the blend was adjusted to 6. Then 1 gram of potassium phosphate was added to the mixture.
A five percent chelated manganese solution was prepared by blending 18 ml of water with 58 grams of a (17% Mn) manganese nitrate solution. Once the manganese nitrate was in solution, 82 grams of the compound produced in Example 10 was added. […] This chelated manganese solution is suitable for blending with phosphorus fertilizers.

For data set [5], the system named is Clover. Put plainly: Foliar applied IDS chelated minerals, tissue analysis, clover. It is filed as in vivo. How it is done:
(§1) An experimental trial was completed testing the efficacy of the Iminodisuccinates (IDS) of this invention on five different crops. Below is the protocol and tissue analysis for both soil and foliar applied iminodisuccinate chelated mineral salts.
(§2) A stock solution for foliar application was prepared by blending 6000 ml of water with T-DAT 09, (Harcross Chemical Company, USA) a surfactant, added to spray mix at 2 drops per liter. • 1). 5 ml of 9% zinc was added to 1 liter of stock solution. • 2). 5 ml of 5% copper was added to 1 liter of stock solution. • 3). 5 ml of 5% manganese was added to 1 liter of stock solution. • 4). 5 ml of 5% Iron was added to 1 liter of stock solution. • 5). 4 ml of 9% zinc, 1 ml of 5% copper, 1 ml of 5% manganese, and 1 ml of 5% iron was added to 1 liter of stock solution. • 6). Stock solution without further addition.
(§3) All plants were sprayed until wet. Harvested material was placed in an oven for one day and sent to the lab for tissue analysis. Harvesting occurred thirty days after planting and some plants had not grown enough to get complete lab results reported. The harvested corn plants were cut at the whirl to insure only new leaves would be tested. The soybeans were clipped above the cotyledon. The alfalfa and clover were removed from the soil and the roots were removed. The wheat was cut at the tillering node.

The test system of data set [6] is Wheat. Put plainly: Soil applied IDS chelated minerals with 10-34-0, tissue analysis, wheat. The format is in vivo. The protocol: as §1
(§4) A). The control pots were watered without any further treatments.
(§5) B). An ammonium polyphosphate stock solution was prepared by adding 50 ml of the 10-34-0 to 4000 ml of water. Treated plants received 100 ml of the stock solution.
(§6) (C). The Zinc stock solution was prepared by blending 10 ml of IDS chelated 9% Zinc to a blend of 50 ml of 10-34-0 with 4000 ml of water. Treated plants received 100 ml of the zinc stock solution.
(§7) (D). The mixture of IDS chelated micronutrients was prepared by adding 4 ml of 9% Zinc, 1 ml of 5% Copper, 1 ml of 5% manganese, and 1 ml of 5% Iron. This mixture was then blended with 4000 ml of water and 50 ml of 10-34-0.
as §3

Data set [7] concerns Clover. Put plainly: Soil applied IDS chelated minerals with 10-34-0, tissue analysis, clover. It is filed as in vivo. How it is done:
as §1, §4, §5, §6, §7, §3

For data set [8], the system named is Corn. Put plainly: Soil applied IDS chelated minerals with 10-34-0, tissue analysis, corn. It is filed as in vivo. How it is done:
as §1, §4, §5, §6, §7, §3

Data set [9] relates to Wheat. Put plainly: Foliar applied IDS chelated minerals, tissue analysis, wheat. The format is in vivo. How it is done:
as §1, §2, §3

The subject of data set [10] is Corn. Description: Foliar applied IDS chelated minerals, tissue analysis, corn. The format is in vivo. The protocol:
as §1, §2, §3

Data set [11] relates to Soybean. Description: Soil applied IDS chelated minerals with 10-34-0, tissue analysis, soybeans. The format is in vivo. How it is done:
as §1, §4, §5, §6, §7, §3

Data set [12] has as its system Soybean. Put plainly: Foliar applied IDS chelated minerals, tissue analysis, soybeans. It is filed as in vivo. How it is done:
as §1, §2, §3

Regarding “2-ethanolaminesuccinic-N-ethanolsuccinicamide [Example 10]”, the “appearance of finished solution / precipitates” value in data set [1] is “free of precipitates”; in [2] (nine percent chelated zinc solution: 22.4 grams zinc oxide in 50 ml water, HCl, 125 grams compound, pH of 5) it was “clear and free of precipitates”; in data set [3] (five percent chelated iron solution: 18 ml water, 100 grams (10% Fe) ferric nitrate solution, 82 grams compound, pH of 5), “clear and free of precipitates”; in data set [4] it was “clear and free of precipitates”.
As to ZINC, the “zinc in plant tissue, TREATED” value in the data set with Clover [5] (harvested 30 days after planting, control 56.7) stood at 1264 parts per million; in the data set on Wheat [6] (soil applied with 10-34-0, harvested 30 days after planting, control 39), 93.1; in the data set on Clover [7] (soil applied with 10-34-0, harvested 30 days after planting, control 53.4), 231; with Corn [8] (soil applied with 10-34-0, harvested 30 days after planting, control 24) it was 69.6; in the data set with Wheat [9] (harvested 30 days after planting, control 44.3), 563 parts per million; in the data set on Corn [10] (harvested 30 days after planting, control 15.6), 792 parts per million. Besides, the “zinc in plant tissue, TREATED” value was found to be 136 in the data set on Soybean [11] (soil applied with 10-34-0, harvested 30 days after planting, control 19.4) and 1000 parts per million in the data set on Soybean [12] (harvested 30 days after planting, control 63.8). For the same molecule, the “zinc in plant tissue, CHANGE” value with Clover [5] (treated minus control 56.7) came to 1207.3 parts per million; in the data set on Wheat [6] (soil applied, treated minus control 39), 54.1; in the data set on Clover [7] (soil applied, treated minus control 53.4) it was 177.6; with Corn [8] (soil applied, treated minus control 24), 45.6; in the data set with Wheat [9] (treated minus control 44.3) it was 518.7 parts per million; with Corn [10] (treated minus control 15.6), 776.4 parts per million. Further, the “zinc in plant tissue, CHANGE” value with Soybean [11] (soil applied, treated minus control 19.4) is recorded as 116.6; with Soybean [12] (treated minus control 63.8) it was 936.2 parts per million. The “zinc in plant tissue, % change” value in the data set on Wheat [6] (soil applied, versus control 39) amounted to 139%; in the data set on Clover [7] (soil applied, versus control 53.4), 333%; in the data set on Corn [10] (versus control 15.6), 4977%; in the data set with Soybean [12] (versus control 63.8) it was 1467%. In addition, the “zinc in plant tissue, %” value in the data set with Corn [8] (soil applied, versus control 24) stood at 190%; in the data set with Soybean [11] (soil applied, versus control 19.4) it was 601%.
`O=C([O-])CC(C(=O)[O-])N(CCO)C(CC(=O)[O-])C(=O)[O-].[K+].[K+].[K+].[K+]` (stereo not shown) [Example 35, N,N-disuccinic-amino-ethanol tetra potassium salt]: the “appearance of solution / precipitates” value in data set [2] (10 ml 17% zinc solution and 20 grams potassium phosphate in a liter of water, phosphorous acid, 30 ml solution, after a day pH 10 with MEA) is “remained clear, free of precipitates, and colorless”. The “redissolution of precipitated ferric phosphate” value in data set [3] (20 grams potassium phosphate and 10 grams 1.8 M ferric solution in one liter water, 2.4 grams of the 0.75 M solution added) was “a clear yellow solution was produced inmediately”.
